{"source": "patent US20230226198A1", "about": "“Artemisinin Derivatives” (DA ZEN THERANOSTICS, INC., priority 2019, published 2023)", "key": {"[1]": {"test_system": "C4-2B MDVR cells", "test": "Seahorse XF mitochondrial function (OCR/ECAR)", "format": "cell-based, human", "details": "5 uM, over 12 hours", "procedure": "Example 5 C: To determine mitochondrial function of cancer cells (here C4-2B MDVR), the cells are treated with vehicle, DZ (5 uM), DHA (5 uM), and DZ-003 (5 uM) over 12 hours, and the oxygen consumption rate (OCR) from respiration and extracellular acidification rate (ECAR) from glycolysis of the live cells is determined in a metabolic chamber in a 24-well plate format using a Seahorse XF analyzer (Seahorse XFe24, Agilent, Calif.). Reagents (drugs/controls) are added to the wells just before start of the recording at time 0, and the effect of the drugs on the basal mitochondrial function is recorded by the analyzer for about 12 hours (720 minutes). All reagents used are Agilent reagents. Cells are seeded and cultured in Seahorse XF RPMI Medium, pH 7.4. The seeding rate is 8×10^5 for the cells to reach about 90% confluency within about 24 hours when the analysis is started. The protocol is essentially performed as per the standard protocol of the manufacturer, removing the medium, washing the cells once with XF Real-Time ATP Rate Assay Medium, then starting the measurement as per the instrument's pre-programming and subsequent real-time measurements of OCAR/ECAR. Preliminary experiments indicate that the THAD as described herein may have an increased effect compared to DZ3a."}, "[2]": {"test_system": "Caki-1 cells (human clear cell renal cell carcinoma cells)", "test": "MTT cell viability / IC50 assay, Caki-1", "format": "cell-based", "procedure": "(§1) Cell culture: In the following examples, unless otherwise specified, all cell lines are purchased from American Type Culture Collection and cultured in American Type Culture Collection (ATCC)-recommended media, with fetal bovine serum (FBS) to a final concentration of 10% and 1× penicillin/streptomycin at 37° C. with 5% CO2 in a cell culture incubator, unless otherwise specified. Unless otherwise specified, culture is 2D. Where culture is 3D, low attachment plates are used, with the same media. C4-2B (ATCC® CRL-3315™, human prostate cancer cells of epithelial morphology) parental cell line and drug-resistant cells derived therefrom) are cultured in RPMI-1640 with 10% FBS. MDVR cells (an Enzalutamide-resistant variety of C4-2B prostate cancer cells formed as described below) are cultured as indicated for the parental C4-2B cells. Caki-1 cells (human clear cell renal cell carcinoma cells) are cultured in ATCC-formulated McCoy's 5a Medium Modified (ATCC Catalog No. 30-2007) with 10% FBS. PC3 cells (ATCC® CRL-1435™, a human prostate cancer cell line of epithelial morphology initiated from a bone metastasis of a grade IV prostatic adenocarcinoma) are cultured in F-12K with 10% FBS. 22RV1 Prostate Cancer (PC) cells (ATCC® CRL-2505™, a human prostate carcinoma cell line of epithelial morphology) are cultured in RPMI-1640 with 10% FBS. DU145 cells (ATCC® HTB-81™, a human cell line derived from a prostate-originating brain metastase, not detectably hormone sensitive, not expressing prostate antigen; forms adenocarcinoma grade II in nude mice) are cultured in ATCC-formulated Eagle's Minimum Essential Medium (EMEM, Catalog No. 30-2003). H446 cells (ATCC® HTB-171™, a human small cell carcinoma SC lung cancer (SCLC) cell line derived from a metastatic site) are cultured in RPMI-1640 with 10% FBS. H358 cells (ATCC® CRL-5807™, a human non-small cell lung cancer (NSCLC) cell line that expresses protein and RNA of SP-A, the major lung surfactant associated protein, and produces tumors in athymic nude mice) are cultured in RPMI-1640 Medium with 10% FBS. BxPC3 cells (ATCC® CRL-1687™, an adenocarcinoma-derived pancreatic cancer cell line that expresses pancreas cancer specific antigen and carcinoembryonic antigen and forms tumors in nude mice) are cultured in RPMI-1640 with 10% FBS.\nExample 1: A cell assay is performed exposing cells cultured as described above to various drugs indicated below for 24 hours unless otherwise indicated. Each of the cell lines is treated either with a THAD (e.g. DZ-DHA-ether, MI-148-bis-DHA), or for comparison, with the DHA mono-ester “DZ-DHA”; alternatively/additionally, DZ1 and/or unconjugated DHA may serve as comparants. For each cell line, the IC50 is determined for each drug in concentrations from 0 to 100 μM. […] In the controls (not shown in the figures), the cells are exposed to DMSO (vehicle) for a final concentration that equals the highest concentration of the drug tested, to a maximum concentration less than 0.1% v/v. 4 hours before culture end/SDS addition, 10 μL MTT (3-(4,5-Dimethyl-2-thiazolyl)-2,5-diphenyl-2H-tetrazolium bromide, Sigma-Aldrich) is added to wells containing the cells. At the end of culture, 100 μl 10% SDS is added and then the plate containing the cells is placed in a 37° C. cell culture incubator for 8 hours. The absorbance density of the supernatant is read on a 96-well microplate reader at wavelength 595 nm. The results of Caki-1 and MDRV are indicated in the table below along with preliminary results for further cancer cell lines (including, e.g., C4-2B, Abi-R, PC3, 22Rv1, DU145, H358, H446, BxPC3), and the corresponding curves are shown in FIG. 2A (Caki-1) and FIG. 2B (MDVR)."}, "[3]": {"test_system": "MDVR cells (Enzalutamide-resistant C4-2B prostate cancer cells)", "test": "MTT cell viability / IC50 assay, MDVR", "format": "cell-based", "details": "Homo sapiens", "procedure": "as §1\nResistant prostate cancer cell lines MDVR and AbiR: MDVR cells are Enzalutamide-resistant cells, AbiR are Abiraterone acetate resistant cells, formed from parental C4-2B prostate cancer cells as follows. A cell assay is performed exposing cells cultured as described above to various drugs indicated below for 72 hours. Parental C4-2B cells are C4-2B non-resistant cells not previously exposed to cancer drugs. Drug-resistant C4-2B cells are created by prolonged exposure to the relevant drug, i.e. Enzalutamide for MDVR, and Abiraterone acetate for AbiR cells, at initially sub-lethal and gradually increasing concentrations until resistance is achieved.\nExample 1: A cell assay is performed exposing cells cultured as described above to various drugs indicated below for 24 hours unless otherwise indicated. Each of the cell lines is treated either with a THAD (e.g. DZ-DHA-ether, MI-148-bis-DHA), or for comparison, with the DHA mono-ester “DZ-DHA”; alternatively/additionally, DZ1 and/or unconjugated DHA may serve as comparants. For each cell line, the IC50 is determined for each drug in concentrations from 0 to 100 μM. […] In the controls (not shown in the figures), the cells are exposed to DMSO (vehicle) for a final concentration that equals the highest concentration of the drug tested, to a maximum concentration less than 0.1% v/v. 4 hours before culture end/SDS addition, 10 μL MTT (3-(4,5-Dimethyl-2-thiazolyl)-2,5-diphenyl-2H-tetrazolium bromide, Sigma-Aldrich) is added to wells containing the cells. At the end of culture, 100 μl 10% SDS is added and then the plate containing the cells is placed in a 37° C. cell culture incubator for 8 hours. […]"}, "[4]": {"test_system": "L858R/T790M EGFR versus wild-type EGFR", "details": "inhibiting phosphorylation of EGFR in cell lines; cited from earlier work"}, "[5]": {"details": "Caki-1, 24 hours, relative IC50, read-out: IC50"}, "[6]": {"details": "Caki-1, unit inferred, read-out: IC50 (FIG. 2A description)"}, "[7]": {"details": "ENZ-resistant C4-2B cells (MDVR), unit inferred, read-out: IC50 (FIG. 2B description)"}, "[8]": {"details": "MDVR, 24 hours, relative IC50, read-out: IC50"}}, "note": "Read-outs that look alike come from different tables or passages of the source.", "data": [{"smiles": "CC1(C)C(/C=C/C2=C(Cl)C(=C/C=C3/N(CCCCCC(=O)O)c4ccccc4C3(C)C)/CCC2)=[N+](CCCCS(=O)(=O)[O-])c2ccccc21", "note": "[DZ1]", "values": [{"measurement": "lowering of OCR (in words)", "setting": "[1]", "value": "drop much less"}]}, {"smiles": "C[C@@H]1CC[C@H]2[C@@H](C)C(OCCNC(=O)CCCCCN3/C(=C/C=C4\\CCCC(/C=C/C5=[N+](CCCCS(=O)(=O)[O-])c6ccccc6C5(C)C)=C4Cl)C(C)(C)c4ccccc43)O[C@@H]3O[C@]4(C)CC[C@@H]1[C@]32OO4", "note": "(stereo partly shown) [DZ-DHA-ether]", "values": [{"measurement": "IC50", "setting": "[2]; [5]", "value": 1420, "unit": "nM"}, {"measurement": "IC50", "setting": "[2]; [6]", "value": "500 to 1500", "unit": "nM"}, {"measurement": "IC50", "setting": "[3]; [7]", "value": 3470, "unit": "nM"}, {"measurement": "IC50", "setting": "[3]; [8]", "value": "< 3470", "unit": "nM"}]}, {"smiles": "C[C@@H]1CC[C@H]2[C@@H](C)C(OC(=O)CCCCCN3/C(=C/C=C4\\CCCC(/C=C/C5=[N+](CCCCCC(=O)OC6O[C@@H]7O[C@]8(C)CC[C@H]9[C@H](C)CC[C@@H]([C@H]6C)[C@@]79OO8)c6ccccc6C5(C)C)=C4Cl)C(C)(C)c4ccccc43)O[C@@H]3O[C@]4(C)CC[C@@H]1[C@]32OO4", "note": "(stereo partly shown) [MHI-148-bis-DHA]", "values": [{"measurement": "IC50", "setting": "[2]; [5]", "value": 710, "unit": "nM"}, {"measurement": "IC50", "setting": "[2]; [6]", "value": "500 to 1500", "unit": "nM"}, {"measurement": "IC50", "setting": "[3]; [7]", "value": "< 1000", "unit": "nM"}, {"measurement": "IC50", "setting": "[3]; [8]", "value": 860, "unit": "nM"}]}, {"smiles": "C=CC(=O)Nc1cc(Nc2nccc(-c3cn(C)c4ccccc34)n2)c(OC)cc1N(C)CCN(C)C", "note": "[Osimertinib]", "values": [{"measurement": "potency against L858R/T790M relative to wild-type EGFR", "setting": "[4]", "value": "100-200 times"}]}]}
